# Tests used:
# Assay type in all cases: cell-based
# [1] = tested on: Loblolly pine megagametophytes; assay: Loblolly pine extrusion and initiation on solid media #1042 (no ABA) with brassinolide, eight weeks
# Description: The promotion of extrusion and initiation in Example 4 was obtained on media containing both brassinolide and abscisic acid (ABA). ABA is known in the art to enhance initiation. This experiment was conducted to determine if brassinolide will promote initiation independently of ABA. The explants were megagametophytes from summer cone collections from four individual trees, each representing a distinct genotype. The seeds contained Stage 2-4 zygotic embryos. Megagametophytes were excised from sterilized seeds, as described in Example 4.
# The control media was solid media #1042, which contains no ABA or brassinolide (Table 47). Treatment media were composed of #1042 plus 0, 0.025, 0.10 or 0.25 μM brassinolide (Table 13). While still liquid, 2 ml media was poured into wells on a culture well plate and allowed to solidify. […] Each replication consisted of ten megagametophytes in adjacent wells on a single well plate. Plates were wrapped with PARAFILM and incubated at 23-24° C. in the dark.
# Both extrusion (Table 14) and initiation (Table 15) frequencies were higher in the brassinolide treatments than in the control. There was no clear brassinolide concentration effect within the tested range. […] One of skill in the art can empirically determine the optimal effective upper and lower brassinolide concentration limits for solid media.
# [2] = tested on: Loblolly pine megagametophytes; assay: Loblolly pine extrusion and initiation immersed in liquid media #1071 with brassinolide, eight weeks
# Description: In Examples 4 and 5, the effect of varying brassinolide concentration in a solid media was measured. This experiment was conducted to determine the optimal concentration of brassinolide in a liquid media. The explants in this experiment were megagametophytes isolated from the cones of four open-pollinated trees representing a multiplicity of genotypes. The seeds contained Stage 2-4 zygotic embryos. Seeds were sterilized as described in Example 1. Seed coats were split and the megagametophytes were isolated by removing integuments and nucellus. Isolated megagametophytes were wholly immersed in liquid media #1071 (Table 47) containing varying concentrations of brassinolide. The five treatments consisted of media containing zero, 0.05, 0.1, 0.15 and 0.2 μM brassinolide (Table 16). Two ml of each media was poured into wells on culture well plates. […]. The experiment consisted of four replications per treatment, per cone collection.
# Nevertheless, overall extrusion frequency was increased in the brassinolide treatments as compared to the control (Table 17). Initiation frequency was increased by the addition of brassinolide from 0.05 to 0.2 μM (Table 18). […] Nevertheless, one of skill in the art could empirically determine the upper and lower effective concentration of brassinolide which is effective in promoting initiation in a liquid media.
# [3] = tested on: Norway spruce zygotic embryos; assay: Norway spruce initiation after ABA pre-treatment of seed or explant, ten weeks
# Description: In this Example, various ABA pre-treatment methods are compared.
# Explants were zygotic embryos flipped out of the megagametophyte, prepared as in Example 1. The experiment consisted of four replications, with a replication consisting of ten explants in a single petri dish. Explants were cultured on solid media lacking ABA.
# The treatments were designed to investigate the effects of pre-treating the whole seed compared to treating the explant (i.e. the embryo and megagametophyte) after their removal from the seed. It is presumed that soaking a whole seed will result in less ABA uptake by the megagametophyte and embryo than soaking them directly in ABA due to their being surrounded by seed tissue. Two treatments also compared the effect of the pH of the ABA solution. In Treatment #1, the control, seeds were soaked in water for 24 hours, and then explants were prepared as in Example 1. In Treatment #2, seeds were soaked in 5 ppm ABA for 24 hours prior to explant removal. In Treatment #3, seeds were soaked in 20 ppm ABA for 24 hours prior to explant removal. In Treatment #4, seeds were soaked in water for 24 hours and then the explants were removed and soaked in a 5 ppm ABA solution of pH 4.5 for 30 minutes. In Treatment #5 seeds were soaked in water for 24 hours and then the explants were removed and soaked in a 5 ppm ABA solution of pH 5.5 for 30 minutes. After ten weeks, the explants were examined and the frequency of embryogenic culture initiation was scored (Table 44).
compound,measurement,setting,value
CC(C)[C@H](C)[C@@H](O)[C@H](O)[C@@H](C)[C@H]1CC[C@H]2[C@@H]3COC(=O)[C@H]4C[C@H](O)[C@H](O)C[C@]4(C)[C@H]3CC[C@]12C [brassinolide],extrusion and initiation frequencies vs control,"[1]; 0.025, 0.10 or 0.25 μM brassinolide, absence of ABA",higher
same,% of Megagametophytes Extruding,"[1]; genotype 5-1207, 0.025 μM Br",38.3 (15.9) %
same,% of Megagametophytes Initiating,"[1]; genotype 5-1207, 0.025 μM Br",27.5 (16.3) %
same,% of Megagametophytes Extruding,"[1]; genotype 5-1207, 0.10 μM Br",30.0 (13.3) %
same,% of Megagametophytes Initiating,"[1]; genotype 5-1207, 0.10 μM Br",20 (15.3) %
same,% of Megagametophytes Extruding,"[1]; genotype 5-1207, 0.25 μM Br",20.0 (10.0) %
same,% of Megagametophytes Initiating,"[1]; genotype 5-1207, 0.25 μM Br",16.7 (8.8) %
same,% of Megagametophytes Extruding,"[1]; genotype 7-1051, 0.025 μM Br",43.3 (8.8) %
same,% of Megagametophytes Initiating,"[1]; genotype 7-1051, 0.025 μM Br",20 (20.0) %
same,% of Megagametophytes Extruding,"[1]; genotype 7-1051, 0.10 μM Br",46.7 (13.3) %
same,% of Megagametophytes Initiating,"[1]; genotype 7-1051, 0.10 μM Br",26.7 (8.8) %
same,% of Megagametophytes Extruding,"[1]; genotype 7-1051, 0.25 μM Br",53.3 (12.0) %
same,% of Megagametophytes Initiating,"[1]; genotype 7-1051, 0.25 μM Br",16.7 (8.8) %
same,% of Megagametophytes Extruding,"[1]; genotype 11-1055, 0.025 μM Br",66.7 (3.3) %
same,% of Megagametophytes Initiating,"[1]; genotype 11-1055, 0.025 μM Br",53.3 (6.7) %
same,% of Megagametophytes Extruding,"[1]; genotype 11-1055, 0.10 μM Br",63.3 (13.3) %
same,% of Megagametophytes Initiating,"[1]; genotype 11-1055, 0.10 μM Br",46.7 (14.5) %
same,% of Megagametophytes Extruding,"[1]; genotype 11-1055, 0.25 μM Br",70.0 (11.5) %
same,% of Megagametophytes Initiating,"[1]; genotype 11-1055, 0.25 μM Br",53.3 (8.8) %
same,% of Megagametophytes Extruding,"[1]; genotype 11-1507, 0.025 μM Br",26.7 (6.7) %
same,% of Megagametophytes Initiating,"[1]; genotype 11-1507, 0.025 μM Br",13.3 (3.3) %
same,% of Megagametophytes Extruding,"[1]; genotype 11-1507, 0.10 μM Br",36.7 (3.3) %
same,% of Megagametophytes Initiating,"[1]; genotype 11-1507, 0.10 μM Br",16.7 (8.8) %
same,% of Megagametophytes Extruding,"[1]; genotype 11-1507, 0.25 μM Br",23.3 (3.3) %
same,% of Megagametophytes Initiating,"[1]; genotype 11-1507, 0.25 μM Br",13.3 (3.3) %
same,% of Megagametophytes Extruding,"[1]; total, 0.025 μM Br",43.8%
same,% of Megagametophytes Initiating,"[1]; total, 0.025 μM Br",28.5%
same,% of Megagametophytes Extruding,"[1]; total, 0.10 μM Br",44.2%
same,% of Megagametophytes Initiating,"[1]; total, 0.10 μM Br",27.5%
same,% of Megagametophytes Extruding,"[1]; total, 0.25 μM Br",41.7%
same,% of Megagametophytes Initiating,"[1]; total, 0.25 μM Br",25.0%
same,Initiation frequency vs control,"[2]; brassinolide from 0.05 to 0.2 μM, liquid media",increased
same,% of Megagametophytes Extruding,"[2]; genotype FN, 0.05 μM Br",32.5 (12.5) %
same,% of Megagametophytes Initiating,"[2]; genotype FN, 0.05 μM Br",20.0 (10.8) %
same,% of Megagametophytes Extruding,"[2]; genotype FN, 0.10 μM Br",15.0 (6.5) %
same,% of Megagametophytes Initiating,"[2]; genotype FN, 0.10 μM Br",10.0 (4.1) %
same,% of Megagametophytes Extruding,"[2]; genotype FN, 0.15 μM Br",40.0 (20.4) %
same,% of Megagametophytes Initiating,"[2]; genotype FN, 0.15 μM Br",20.0 (12.2) %
same,% of Megagametophytes Extruding,"[2]; genotype FN, 0.2 μM Br",50.0 (18.3) %
same,% of Megagametophytes Initiating,"[2]; genotype FN, 0.2 μM Br",35.0 (15.0) %
same,% of Megagametophytes Extruding,"[2]; genotype FO, 0.05 μM Br",0.0 (0) %
same,% of Megagametophytes Initiating,"[2]; genotype FO, 0.05 μM Br",0 (0) %
same,% of Megagametophytes Extruding,"[2]; genotype FO, 0.10 μM Br",0.0 (0) %
same,% of Megagametophytes Initiating,"[2]; genotype FO, 0.10 μM Br",0 (0) %
same,% of Megagametophytes Extruding,"[2]; genotype FO, 0.15 μM Br",0.0 (0) %
same,% of Megagametophytes Initiating,"[2]; genotype FO, 0.15 μM Br",0 (0) %
same,% of Megagametophytes Extruding,"[2]; genotype FO, 0.2 μM Br",0.0 (0) %
same,% of Megagametophytes Initiating,"[2]; genotype FO, 0.2 μM Br",0 (0) %
same,% of Megagametophytes Extruding,"[2]; genotype FX, 0.05 μM Br",17.5 (6.3) %
same,% of Megagametophytes Initiating,"[2]; genotype FX, 0.05 μM Br",17.5 (6.3) %
same,% of Megagametophytes Extruding,"[2]; genotype FX, 0.10 μM Br",27.5 (12.5) %
same,% of Megagametophytes Initiating,"[2]; genotype FX, 0.10 μM Br",25.0 (10.4) %
same,% of Megagametophytes Extruding,"[2]; genotype FX, 0.15 μM Br",15.0 (5.0) %
same,% of Megagametophytes Initiating,"[2]; genotype FX, 0.15 μM Br",12.5 (4.8) %
same,% of Megagametophytes Extruding,"[2]; genotype FX, 0.2 μM Br",17.5 (4.8) %
same,% of Megagametophytes Initiating,"[2]; genotype FX, 0.2 μM Br",17.5 (4.8) %
same,% of Megagametophytes Extruding,"[2]; genotype FZ, 0.05 μM Br",0.0 (0) %
same,% of Megagametophytes Initiating,"[2]; genotype FZ, 0.05 μM Br",0 (0) %
same,% of Megagametophytes Extruding,"[2]; genotype FZ, 0.10 μM Br",2.5 (2.5) %
same,% of Megagametophytes Initiating,"[2]; genotype FZ, 0.10 μM Br",2.5 (2.5) %
same,% of Megagametophytes Extruding,"[2]; genotype FZ, 0.15 μM Br",2.5 (2.5) %
same,% of Megagametophytes Initiating,"[2]; genotype FZ, 0.15 μM Br",2.5 (2.5) %
same,% of Megagametophytes Extruding,"[2]; genotype FZ, 0.2 μM Br",0.0 (0) %
same,% of Megagametophytes Initiating,"[2]; genotype FZ, 0.2 μM Br",0 (0) %
same,% of Megagametophytes Extruding,"[2]; total, 0.05 μM Br",12.5%
same,% of Megagametophytes Initiating,"[2]; total, 0.05 μM Br",9.4%
same,% of Megagametophytes Extruding,"[2]; total, 0.10 μM Br",11.3%
same,% of Megagametophytes Initiating,"[2]; total, 0.10 μM Br",9.4%
same,% of Megagametophytes Extruding,"[2]; total, 0.15 μM Br",14.4%
same,% of Megagametophytes Initiating,"[2]; total, 0.15 μM Br",8.8%
same,% of Megagametophytes Extruding,"[2]; total, 0.2 μM Br",16.9%
same,% of Megagametophytes Initiating,"[2]; total, 0.2 μM Br",13.1%
"CC1=CC(=O)CC(C)(C)C1(O)/C=C/C(C)=C\C(=O)O (stereo not shown) [ABA, 5-(1-hydroxy-2,6,6,-trimethyl-4-oxo-2-cyclohexen-1-yl)-3-methyl-2,4-penta dienoic acid]",% Initiating (std. error),"[3]; explant soaked in 5 ppm ABA (pH 4.5), 30 minutes",31.2 (12.2) %
same,% Initiating (std. error),"[3]; explant soaked in 5 ppm ABA (pH 5.5), 30 minutes",22.0 (3.0) %
same,% Initiating (std. error),"[3]; seed soaked in 5 ppm ABA, 24 hours",15.1 (6.6) %
same,% Initiating (std. error),"[3]; seed soaked in 20 ppm ABA, 24 hours",24.0 (5.4) %

# Source: patent US6492174B1, “Methods of initiating embryogenic cultures in plants” (Institute of Paper Science & Technology, priority 2000, dated 2002)
